Assay results taken from PMC3076384, “A Dopa Decarboxylase Modulating the Immune Response of Scallop Chlamys farreri” (PLoS ONE, 2011).

Target: T1, rCfDDC (recombinant CfDDC, dopa decarboxylase of Chlamys farreri) (Azumapecten farreri, UniProt F8QPW5)
T1 construct: gene DDC; ~65 kDa on gel
T1 sequence (F8QPW5 1-560): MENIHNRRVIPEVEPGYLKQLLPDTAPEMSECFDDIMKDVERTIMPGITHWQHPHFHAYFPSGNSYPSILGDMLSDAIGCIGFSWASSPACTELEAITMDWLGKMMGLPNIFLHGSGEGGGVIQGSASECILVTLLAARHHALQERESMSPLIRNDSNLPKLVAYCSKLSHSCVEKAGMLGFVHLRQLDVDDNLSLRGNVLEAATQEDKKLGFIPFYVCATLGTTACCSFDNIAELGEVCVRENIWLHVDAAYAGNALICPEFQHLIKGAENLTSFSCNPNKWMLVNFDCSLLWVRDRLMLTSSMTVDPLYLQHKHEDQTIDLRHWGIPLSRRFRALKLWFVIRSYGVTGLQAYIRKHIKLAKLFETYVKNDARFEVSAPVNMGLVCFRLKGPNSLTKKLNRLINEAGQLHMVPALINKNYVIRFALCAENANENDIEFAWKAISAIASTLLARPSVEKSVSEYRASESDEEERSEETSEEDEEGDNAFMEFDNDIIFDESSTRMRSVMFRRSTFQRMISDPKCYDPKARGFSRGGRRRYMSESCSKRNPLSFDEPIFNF
Assay: dopamine formation measured by ELISA kit
Type: biochemical
Conditions: 30 mM L-Dopa; 0.4 mM PLP; PBS pH 7.4; 37 °C; 1 h

N[C@@H](Cc1ccc(O)c(O)c1)C(=O)O [L-Dopa]
dopamine formation measured by ELISA kit: there was detectable dopamine in the reactions with the addition of rCfDDC
